Where “and” joins values, the source holds several entries; their conditions need not be identical. Identical values can stand only once.
Tests used:
[1] = QCM-D adsorption of primers; format: physicochemical; settings: for mass loss during rinsing: of initial mass
Description: A ‘static cell’ (often called ‘Open Module’) QCM-D (Q-Sense, Biolin Scientific) was employed to quantitatively evaluate the adsorption of each primer onto SiO2 surface using a quartz sensor (QSX 303, Biolin Scientific). Changes in resonance frequency (ΔF) and dissipation (ΔD) of the SiO2 were recorded and used to measure the adsorbed mass and layer viscoelasticity, respectively, of the primer deposited on the sensor. In detail, pure solvent (100 μl) was dropped onto the sensor and equilibrated for ˜20-30 min. Then, 2 wt % primer solution (100 μl) was dropped onto the sensor (this is labeled “Solution Drop-in” in FIG. 51) and equilibrated until the frequency and dissipation signals stabilized. To remove unbound primers, the sensor was rinsed with solvents (this is labeled “Solvent Rinsing” in FIG. 51) and equilibrated until frequency and dissipation signals stabilized.
Mass loss of P3 and P4 during the rinsing was negligible compared to P2 which lost 60% of initial mass, indicating outstanding adsorption efficiency of catechol-containing primers on SiO2 surfaces even compared to mussel foot protein adsorption (˜30% loss of mfp-3s^3). The priming thickness of P4 estimated by QCM-D is ˜3.1 nm which agrees with the average height of AFM images (˜3.5 nm), assuming that QCM-D measures the average thickness of a uniform layer. The smaller average thickness of P4 (˜3.1 nm) compared to the molecular contour length (˜4.8 nm) may be attributed to the flexible alkyl spacer in P4. The possibility of a softer, more flexible layer with P4 is supported by a higher change in dissipation (ΔD) compared to other primers.

[2] = Lap shear test of cured PMA resin on primed tooth enamel; parameters: species or system human
Description: (§1) 1 wt % primer solution was spread on mica, glass, tooth enamel, or a silicon wafer and incubated for 1 min, followed by thorough washing with methanol (for MDP, P1-P3) or DMSO (for P4) and drying by flowing nitrogen. The surfaces were exposed to a basic aqueous solution (pH 9, using sodium hydroxide), incubated for 1 min, and drying by flowing nitrogen (see FIG. 52). The methacrylic comonomer blend (Bis-GMA, TEGDMA, DMAEMA and CQ) was packed in a gelatin capsule (size #4, 5-mm diameter, Torpac Inc.) and placed up on top of the primer-treated substrates. The comonomer blend was cured (or crosslinked) for 1 min using a portable dental curing lamp (Foshan Liang Ya Dental Co., LY-A180, 420-480 nm, 1200-2000 mW·cm^−2) (see FIG. 53). Uniaxial compression was applied to the capsule at a rate of 0.05 inch min^−1 using a materials testing system (MTS Bionix 200) until the capsules are separated from the substrate. The lap shear fracture measurements were repeated at least 10 times for each condition.

[3] = Lap shear test of cured PMA resin on primed mica; settings: first value of each pair (mica)
Description: as §1

[4] = Lap shear test of cured PMA resin on primed silica/glass; settings: second value of each pair (silica)
Description: as §1

[5] = test system: L929 mammalian fibroblast cells; assay: Cell viability assay on surface treated glass (ISO 10993); format: cell-based; settings: primed glass surface, 3 days, trypan blue
Description: L929 mammalian fibroblast cells were purchased from the Korean Cell Line Bank (Seoul, Korea) and cultured in Roswell Park Memorial Institute (RPMI) 1640 media (Life Technologies) with 10% fetal bovine serum, 25 mM sodium bicarbonate and 1% penicillin-streptomycin. Silane-grafted and Catechol (P3) primed glass slides were prepared by following procedures described in section 6 and 3, respectively. Each glass substrate was placed on the 100π cell culture plate and sterilized by 70% ethanol solution. After equilibrated in phosphate buffered saline (PBS) and media for 5 min each, L929 cells were seeded onto the glass substrates at a density of 1×10^6 cells per plate. Cells were incubated for 3 days in 5% CO2 at 37° C. After 3 days, the substrates were transferred to new culture plates and washed extensively with PBS. Cells were then detached by 0.05% trypsin-EDTA and stained with trypan blue solution to assess cell viability. Living cells are impermeable to the stain, whereas dead cells with compromised membranes turn blue. The number of live cells was counted using a standard hemocytometer. The bare glass slide without any modification served as a control (FIGS. 56A-56B).

[6] = SFA adhesion of cured PMA resin between primer-treated mica surfaces; settings: for adhesion pressure Pad: n=5
Description: Atomically-smooth muscovite mica sheets were freshly cleaved (thickness of 2-5 μm) and attached on another large freshly cleaved mica backing sheet under a laminar flow hood and placed in a desiccator for clean storage. To ensure use of a fresh surface for each experiment, mica was peeled away from the backing sheet and glued on cylindrical disks using an epoxy glue (EPON 1004 F® from Exxon Chemicals). In each experiment, the mica surfaces were treated with one of the primer solutions, as described for the lap shear experiments, and then mounted in the SFA in a cross cylindrical geometry. In contrast to typical SFA experiments, which use an interferometric method to calculate the disk-disk separation distances and thus the interaction forces, in the SFA used here for adhesion testing, the disk separations were directly measured using semiconductor strain-gauged double cantilever springs (k=1000-10000 N/m)(see FIG. 67). After separating the surfaces, 100 […]1 of comonomer blend was injected between the two surfaces. Then, ˜600 mN of load was applied, followed by visible light curing for 1 min using the portable dental curing lamp (see FIG. 54G). Adhesion strength of cured polymer toward the mica was measured by detaching (unloading) two surfaces. All loading and unloading were performed using a coarse micrometer at the velocity of […]. The SFA measurements were repeated at least 5 times for each condition.

[7] = AFM height profiles of adsorbed primers; format: physicochemical; settings: for adsorption seen by AFM: 1 wt.% solution, mica and glass; for AFM height: mica
Description: Each primer solution (1 wt %) was prepared in methanol (for P1-P3) or DMSO (for P4). The primer solution was drop cast onto a freshly cleaved mica or glass surface, and kept at room temperature for 1 min. Subsequently, the surfaces were thoroughly rinsed with the respective solvents and dried with argon. All images, surface profiles and surfaces roughnesses were collected using an Asylum MFP-3D standard system (Asylum Research, Santa Barbara, CA) using silicon cantilevers (FORTGG-50, Applied NanoStructures, Santa Clara, CA) (FIGS. 48C and 49).

[8] = Surface forces apparatus (SFA) cohesion/adhesion between thin films on mica; format: physicochemical; settings: symmetric films adsorbed from 5 mM, DI water, mica
Description: The interaction between two surfaces can be measured with nano-Newton level force resolution and Angstrom level resolution in the separation distance between the surfaces. The details of the SFA techniques have been describe in a work by Israelachvili et al. In a typical SFA experiment (FIG. 2C), the distance and the force between the surfaces are measured simultaneously. To begin with, the instrument is calibrated at large separation distances. When the two surfaces are not interacting, i.e., they are separated by large distances, the change in the separation between them is equal to the distance through which the motor moves the lower surface towards or away from the upper surface (or the upper surface driven by the piezo-tube moves towards the lower surface). However, once the surfaces are close enough to start interacting with each other, the measured separation distance deviates from the expected separation calibrated when there is no force between the surfaces. This deviation is due to the deflection of the double cantilever spring and is directly proportional to the force acting normally between the two opposing surfaces. Thus the normal force can be measured using Hooke's law, F=kΔx, where k is the spring constant of the double-cantilever spring and Δx=Dactual−Dapplied is the deflection of the spring, determined by taking the difference between the applied change in position of one of the surfaces Dapplied and the actual change in distance measured between the surfaces Dactual. The actual distance, Dactual, between the surfaces can be measured by multiple beam interferometry (MBI) and will be discussed below.
The distance between the surfaces, shape of the interface and the refractive index of the media between the surfaces can be accurately determined by Multiple Beam Interferometry (MBI) technique. In this technique, white light is directed through two back-silvered mica surfaces (or uniform and same thickness). As a white light passes between the mica surfaces, it undergoes interference due to the optical trap set up by the back silver on each of these surfaces giving rise to discrete wavelengths of light (FIG. 2C). These wavelengths of light are resolved in a spectrometer creating interference fringes known as ‘fringes of equal chromatic order’ (FECO). Since mica is birefringent, the FECO appears as doublets and termed as β and γ. Alternate fringes are termed as odd and even fringes with odd fringes having nodes at the center and even fringes with anti-nodes in the center. The FECO is then recorded on a camera and analyzed to determine the distance between the surfaces using the following equations: […]
The adhesion/cohesion energy of the synthetic zwitterionic molecules was investigated in SFA (SurForce LLC, Santa Barbara, CA). Two molecularly smooth freshly cleaved back silvered mica surfaces glued on cylindrical silica discs of radius of curvature, R˜2 cm, were mounted in the SFA and 50 μL of a colloidal dispersion of the synthetic molecules in DI water were injected between the surfaces at different concentrations (C=0.5-5 mM) and the forces between the thin films of the molecules were measured by Multiple Beam Interferometry (MBI). The adhesion forces between Z-Cat-C10 molecules on various surfaces, e.g., silica and copper, were also measured by AFM (MFP-3D, Asylum research, Goleta, CA) in DI water and ambient conditions, respectively, at room temperature. AFM probes with a silicon dioxide particle (10, 5, and 1 μm, respectively) on a silicon nitride (SN) cantilever-0.6 N m^−1 were purchased from Novascan Technologies, Inc (Ames, IA). Cantilever spring constants were measured for each force run. Images of Z-Cat-C10 coating on silicon wafer and copper plates were visualized in an AFM. […]

[9] = Stability of isolated compound over time (NMR observation); format: physicochemical; settings: after isolation
Description: Attempts to increase the level of purity by either recrystallization or HPLC were unsuccessful and the compound was used “as is” for further study. It is recommended that extra care is taken to ensure that this compound be protected from atmospheric oxygen, and be used and analyzed immediately after isolation. […] Reaction time=4 days (96 hours) 69% isolated yield.

[10] = n-DTS-modified nano-grooved SiO2, earlier reports; cited from earlier work
[11] = Contact angle measurements on SAM-modified substrates; format: physicochemical; settings: SAM-modified nano-grooved SiO2
Description: The nano-grooved SiO2 substrates passivated with Z-Cat-Ben or Z-Cat-Ben-F SAMs were prepared with the same procedure described above. For the reference substrate, the pre-cleaned and ultraviolet/ozone-treated (for 10 min) nano-grooved SiO2 substrate was passivated with n-decyltrichlorosilane (Gelest Inc.) in toluene solution (1% by volume) at 80° C. for 20 min in ambient air. Then, the substrate was subsequently sonicated in toluene and rinsed with additional toluene several times. Anhydrous chlorobenzene (50 μL) was used as a droplet dropping on the substrates. All contact angle images were taken at the direction perpendicular to nano-grooves in the substrates using Dataphysics OCA 15EC goniometer.

| SMILES | thickness from QCM-D [1] [nm] | mass loss during rinsing [1] | lap shear strength σshear,max [2] [MPa] | lap shear strength σshear,max [3] [MPa] | lap shear strength σshear,max [4] [MPa] | contact cytotoxicity [5] | Pad relative to MDP primer [6] [times] | Pad relative to Silane primer [6] [times] | increase in adhesion vs plain mica (no primer) [6] [fold] | adhesion pressure Pad [6] | adsorption seen by AFM [7] | AFM height [7] | surface concentration of adsorbed layer ([1]; Sauerbrey, after rinsing) [ng/cm^2] | cohesion (or adhesion) energy Wc [8] [mJ m^−2] | stability over time [9] | saturation hole mobilities [10] | contact angle θ of chlorobenzene droplet [11] |
| --- | --- | --- | --- | --- | --- | --- | --- | --- | --- | --- | --- | --- | --- | --- | --- | --- | --- |
| C=CC(=O)OCC(O)Cc1ccc(O)c(O)c1 (centres unmarked) [P3, 3-(3,4-dihydroxyphenyl)-2-hydroxypropyl acrylate] | ~1.6 | negligible | 3.0±0.3 | 0.8±0.2 | 4.2±0.7 | non-toxicity was confirmed | ~8 | ~2 | ~10 | 201.5±50.2 kPa and ~200 kPa | densely primed | 1-2 nm |  |  |  |  |  |
| C=CC(=O)OCCCCCCCCOC(=O)CCc1ccc(O)c(O)c1 [P4, 8-((3-(3,4-dihydroxyphenyl)propanoyl)oxy)octyl acrylate] | ~3.1 | negligible | 3.0±0.3 | 0.9±0.1 | 4.5±0.5 |  |  |  | ~4 | 81.7±18.5 kPa | densely primed | ~3.5 nm | 345 |  |  |  |  |
| C[N+](C)(CCCc1ccc(O)c(O)c1)CCOP(=O)([O-])OCCCc1ccc(O)c(O)c1 [Z-Cat-Cat] |  |  |  |  |  |  |  |  |  |  |  |  |  | 8.1±1.3 | highly susceptible to degradation over time |  |  |
| CCCCCCCCCC[Si](Cl)(Cl)Cl [n-DTS, n-decyltrichlorosilane, reference compound] |  |  |  |  |  |  |  |  |  |  |  |  |  |  |  | 23-58 cm^2 V^−1 s^−1 | ≈ 31 ° |

Reference: US12415939B2, “Nano-adhesive and surface primer compound and use thereof” (The Regents of the University of California, priority 2015, dated 2025)
